Source: PMC8765781, “A platform of assays for the discovery of anti-Zika small-molecules with activity in a 3D-bioprinted outer-blood-retina model” (PLoS ONE, 2022)
Like-named read-outs stand apart in the source and are kept apart here.

How the values were obtained:
[1] = in vitro; conditions: human
[2] = tested on: ZIKV-mCherry (Cambodian strain FSS13025); assay: microbe, parasite or virus in culture; format: cell-based, Zika virus; conditions: for AC50: Zika virus, Vero
[3] = tested on: ZIKV-RLuc (Cambodian strain FSS13025); assay: microbe, parasite or virus in culture; format: cell-based, Zika virus; conditions: Zika virus, Vero, 48 h, read-out: Rluc-ZIKV (ZIKV Antiviral Assays), IC50
[4] = in vitro; conditions: human; remark: listed apart in the source
[5] = tested on: mCherry-ZIKV in human neuronal progenitor cells; assay: microbe, parasite or virus in culture; format: cell-based, Zika virus; conditions: for AC50 / IC50: Zika virus, Neuronal progenitor cell; for IC50: read-out: NPC (ZIKV Antiviral Assays), IC50
[6] = tested on: wild-type ZIKV (Ugandan MR766 strain) in Vero cells; assay: ZIKV cytopathic effect (CPE) inhibition qHTS assay, CellTiter-Glo readout; format: cell-based, Zika virus; conditions: for AC50 / IC50: Zika virus, Vero; for IC50: 48 h, read-out: ZIKV-infection (CPE, ZIKV Antiviral Assays), IC50
[7] = in vitro; conditions: African green monkey; for CC50 at 48 h: Vero cells
[8] = tested on: caspase-3 activity induced by ZIKV in Vero cells; assay: cells; format: cell-based; conditions: Zika virus, Vero, 48 h, read-out: Caspase 3 (ZIKV Antiviral Assays), IC50
[9] = tested on: DENV (Dengue virus type 2, strain New Guinea C)
[10] = tested on: ZIKV
[11] = tested on: YFV (YFV 17D)
[12] = tested on: WNV (Kern515/WN02)
[13] = read-out: Log AC50 (M) (converted)

Structure (SMILES)	CC-v2 (curve class of the dose response curve) [2]	Efficacy (difference between neutral response and maximum compound response) [2]	Max Resp (difference between neutral response and response at highest compound concentration) [2]	AC50 [2]	AC50 [2, 13]	IC50 [3]	CC50 at 24 h [4]	Antiviral activity in human NPC [5]	CC-v2 (curve class) [5]	Efficacy [5]	Max Resp [5]	AC50 [5]	AC50 [5, 13]	IC50 [5]	Efficacy [6]	AC50 [6]	IC50 [6]	AC50 [6, 13]	CC50 at 48 h [7]	IC50 [8]	further results
Nc1ccn([C@@H]2O[C@H](CO)[C@@H](O)C2(F)F)c(=O)n1 [NCGC00168784-08, gemcitabine, reference compound]	-1.2	-61.697	-99.896	2.67e-09 M	2.67e-09 M	0.02 µM	16.3 µM	moderate antiviral activity	-1.2	-65.573	-52.766	6.31e-06 M	6.31e-06 M	6.31 µM	-24.938	9.2e-06 M	9.2 µM	9.2e-06 M	> 50 µM	> 48 µM	CC50 [1]: > 30 µM
OC1C=C2C3CN(Cc4cc5c(cc43)OCO5)C2CC1O (centres unmarked) [NCGC00385948-01]	-1.2	-44.826	-97.729	2.67e-06 M	2.67e-06 M	9.28 µM		effectively inhibited ZIKV in NPC cells	-1.2	-64.358	-62.953	1e-05 M	1e-05 M	10 µM	-79.681	2.59e-05 M		2.59e-05 M		4.17 µM	Activity against DENV [9]: active against DENV; DENV active Yes/No [9]: Yes; SI value DENV (CC50/EC50) [9]: 16; Selectivity Index DENV (CC50/EC50) [9]: 16; CC50 [4]: > 30 µM; CC-v2 (curve class classification of the dose response curve) [6]: -2.2; CC50 [7]: > 50 µM; Activity against ZIKV [10]: weaker against WNV and ZIKV; SI value ZIKV (CC50/EC50) [10]: 4.7; Selectivity Index ZIKV (CC50/EC50) [10]: 5; ZIKV active Yes/No [10]: Yes; YFV active Yes/No [11]: No; Activity against WNV [12]: weaker against WNV and ZIKV; SI value WHV (CC50/EC50) [12]: 7.6; Selectivity Index WHV (CC50/EC50) [12]: 8; WHV active Yes/No [12]: Yes
CC(C)(C#N)c1ccc(N2C(=O)OCc3cnc4ccc(-c5cnc6ccccc6c5)cc4c32)cc1 [NCGC00386292-05]	-1.2	-67.723	-93.524	5.32e-07 M	5.32e-07 M	2.93 µM	> 30 µM	moderate antiviral activity		-38.419	3.825	2.51e-05 M	2.51e-05 M	25.1 µM	-23.858	4.61e-06 M	4.61 µM	4.61e-06 M	> 50 µM	0.04 µM	DENV active Yes/No [9]: No; SI value ZIKV (CC50/EC50) [10]: 3; Selectivity Index ZIKV (CC50/EC50) [10]: 3; ZIKV active Yes/No [10]: Yes; YFV active Yes/No [11]: No; WHV active Yes/No [12]: No
C=C(F)c1sc(CNCCCNc2cc(=O)c3ccccc3[nH]2)c(C)c1Br [NCGC00386616-01]	-1.4	-70.696	-94.173			8.27 µM	> 30 µM	moderate antiviral activity	-2.2	-88.323	-56.18	3.98e-05 M	3.98e-05 M	39.8 µM	-30.953	2.06e-05 M	20.6 µM	2.06e-05 M	> 50 µM	1.05 µM	DENV active Yes/No [9]: No; ZIKV active Yes/No [10]: No; YFV active Yes/No [11]: No; WHV active Yes/No [12]: No
